Values joined by “and” are separate entries in the source; they are usually repeats but may differ in a detail not shown here. Identical values can stand only once.
Tests used:
[1] = test system: H9 cells; assay: Multiplexed gene integration of three fluorescent protein transposons with MTX step selection, flow cytometry; format: cell-based, human; settings: for cells expressing triple transgenes: 200 nM MTX 1 week
Method: (§1) H9 cells were cultured in DMEM with 10% FBS. The optimized nucleofection protocol for H9 cells (Lonza) was followed (program X-001, Nucleofector Kit V). Per nucleofection, 1×10^6 cells were used with varying amounts of MC DNA. Cells were grown for a week after nucleofection to achieve stable transfection.
(§2) Live cells were selected based on propidium iodide exclusion by adding propidium iodide in the flow cytometry buffer to 2 μg/ml. Flow cytometry analysis was carried out on a MACSQuant Analyzer (Miltenyi Biotec) and LSRII (BD Biosciences). Collected data was analyzed with FlowJo software. Appropriate negative controls (untransfected H9 cells with and without propidium iodide staining, as well as cells transfected with single genes for GFP, BFP, and mCherry) were used for compensation and gating. A Becton Dickinson FACSAria II was used for cell sorting. Part of flow cytometry work was conducted at the UW Immunology Flow Cytometry Facility.
H9 cells were nucleofected with three minicircles containing three different reporter genes (maxGFP, mCherry, and BFP) in transposon cassettes and the SB100X transposase minicircle. Stably-transduced cells were then selected for 7 days with 200 nM and cell population assessed by flow cytometry analysis. […] Initial transfection efficiency assessed 24 hours after nucleofection, was 68% (FIG. 6A). The stably transduced population was 37±1.4%, reflecting 54% integration efficiency. Of this population, 19±0.6% expressed two or three different fluorescent proteins. […] Cell viability rebounded to ˜70% during the second round of selection due to further selection for overexpression of the DHFRdm gene.

[2] = test system: cells transfected with GFP:SB; assay: GFP expression in cells transfected with GFP:SB (SB100X DNA or RNA) under MTX; format: cell-based; settings: cells transfected with 5 ug of GFP:SB; 50 uM and 100 uM MTX tested
Method: Cells were electroporated with SB100X (DNA or RNA) or transposons carrying genes for GFP, CARS, or GFP/mCherry/BFP. FIG. 20A relates to lymphocytes; FIG. 20B relates to single cells; FIG. 20C relates to live cells; FIG. 20D relates to GFP; FIG. 20E relates to a time-line.
As shown in the figure are several scattergrams of the cells that are transfected with GFP gene carrying transposons. Several samples of cells are transfected with DNA comprising a gene for GFP expression (2.5 ug and 5 ug), mcGFP only, and RNA (1 ug and 3 ug).
FIGS. 24A-24B relate to expression of GFP in cells transfected with GFP:SB. […] FIG. 24B relates to the experiment was performed using RNA, however, DNA has a higher efficiency for leading to expression of the protein.

[3] = test system: H9 cells; assay: Transposon copy number by qPCR in MTX-selected H9 cells; format: cell-based, human
Method: Genomic DNA was extracted with Puregene Kit A according to the manufacturer's instructions (Qiagen), and qPCR was performed using a 7300 Real-Time PCR System (Applied Biosystems) using Universal SYBR Green Supermix (BioRad). Primers for qPCR were designed using Primer3 software: […]
MaxGFP primers are specific for the maxGFP gene in the transposon. Standard curves were generated using genomic DNA of a H9 clone with a single insertion of transposon (“gold standard”) obtained by limiting dilution method. Copy number was calculated using the […] (Schmittgen, T. D. and Livak, K. J. (2008), incorporated in its entirety herein). Characterization of SBTS Integration Distribution.
Plates were incubated for 2-3 weeks, after which clonal populations were moved to larger plates and expanded. GFP expression was confirmed by flow cytometry. Relative RT-qPCR analysis was performed using DNA of 60 individual clones in order to determine transposon copy number.
First, a “gold standard” clone with a single copy of integrated transposon was generated by limiting dilution method. […] A trend of increasing average transposon copy number with increasing selection pressure was observed. […] Statistical difference was assessed by Student's t-test.
Sixty clones were generated by limiting dilution method, GFP expression confirmed by flow cytometry, genomic DNA isolated, and the number of GFP genes per haploid genome analyzed by RT-PCR. Most clones (˜65%) contained multiple copies of GFP.

[4] = test system: H9 cells; assay: MTX selection and transgene persistence in H9 cells stably transfected with T3/GFP-T2A-DHFRdm transposon, flow cytometry; format: cell-based, human
Method: as §1, §2

[5] = 60 clones from population selected with 200 nM MTX

## CN(Cc1cnc2nc(N)nc(N)c2n1)c1ccc(C(=O)N[C@@H](CCC(=O)O)C(=O)O)cc1 [MTX, methotrexate]
[1]; then 500 nM MTX additional week
  cells expressing triple transgenes: 38.5±1.0%
[1]; then 1000 nM MTX additional week
  cells expressing triple transgenes: 53.1±0.3%
[1]; during the second round of selection
  cell viability: ~70%
[1]; two-step selection, two successive MTX selection rounds
  cells expressing three transgene products: 50%
[2]
  MTX concentration at which cells express GFP optimally: 50 µM
[3]; [5]
  average number of integration events in clones: 1.8 and 1.78±0.69
  clones containing multiple copies of GFP: ~65%
[3]; cell population selected with 200 nM MTX, RT-qPCR
  average integration events (transposon copy number per human haploid genome): 2.1±0.45
[4]; 50 nM MTX selection
  decrease in mean GFP expression by 4 weeks post-MTX withdrawal: 28%
[4]; 100 nM MTX selection
  decrease in mean GFP expression by 4 weeks post-MTX withdrawal: 27%
[4]; 200 nM MTX for 2 weeks
  GFP+ population four weeks post-MTX withdrawal: 97%
[4]; 200 nM MTX selection
  decrease in mean GFP expression by 4 weeks post-MTX withdrawal: 21%
[4]; all populations (50, 100, 200 nM MTX for 2 weeks)
  GFP+ population four weeks post-MTX withdrawal: > 90%
[4]; by 7 days post-selection, all conditions (50 to 200 nM MTX)
  GFP+ cells: > 94%

From patent US12258397B2 (Seattle Children's Hospital, priority 2014, dated 2025)
